Reference: patent publication US20230158025A1 (UNIVERSITY OF UTAH RESEARCH FOUNDATION, priority 2020, published 2023)
Read-outs that look alike come from different tables or passages of the source.

Assays:
[1] = aqueous kinetic solubility
recombinant mouse GALK1 = recombinant mouse GALK1 (Mus musculus, UniProt Q9R0N0); experiment: mGALK1 biochemical activity assay (Kinase-Glo Plus, ATP depletion)
How it was run: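 Recombinant GALK1 (5 nM) with 100 μM galactose; GALK1 turnover read as ATP depletion by Kinase-Glo Plus luminescence. Reaction ran 1 h at room temperature before detection reagent was added.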

[2] = rat microsomal stability (RLM)
recombinant human GALK1 = recombinant human GALK1 (Homo sapiens, UniProt P51570); experiment: hGALK1 biochemical activity assay (Kinase-Glo Plus, ATP depletion)
Chain of recombinant human GALK1 (P51570 whole entry): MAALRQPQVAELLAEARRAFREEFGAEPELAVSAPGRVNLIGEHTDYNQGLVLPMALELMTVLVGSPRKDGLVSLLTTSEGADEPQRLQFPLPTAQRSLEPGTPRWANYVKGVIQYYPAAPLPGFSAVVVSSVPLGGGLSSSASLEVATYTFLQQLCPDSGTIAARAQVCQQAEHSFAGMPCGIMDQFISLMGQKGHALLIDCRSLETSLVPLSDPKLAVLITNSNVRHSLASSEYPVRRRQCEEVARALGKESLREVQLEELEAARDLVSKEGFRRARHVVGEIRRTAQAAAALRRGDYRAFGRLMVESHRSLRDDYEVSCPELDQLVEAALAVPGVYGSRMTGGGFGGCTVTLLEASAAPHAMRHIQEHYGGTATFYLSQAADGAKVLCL
How it was run: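 Recombinant human or mouse GALK1 (5 nM, with 100 μM galactose, in the added enzyme solution) was run with ATP (35 μM in the substrate solution) in HEPES pH 8.0 buffer. Compounds were tested at 11 1/3-step concentrations from 57.4 μM to 0.97 nM. After 1 h at room temperature, remaining ATP was read by Kinase-Glo Plus luminescence.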

[3] = Tables 2-15, 35 μM ATP, 100 μM galactose, 1 h, bracketed figure after some values is undefined and not reported, read-out: mGALK IC50
[4] = recombinant mouse GALK1, Kinase-Glo Plus ATP depletion, read-out: mGALK
[5] = Tables 2-15, 35 μM ATP, 100 μM galactose, 1 h, bracketed figure after some values (e.g. −1.2) is undefined and not reported, read-out: hGALK IC50
[6] = recombinant human GALK1, Kinase-Glo Plus ATP depletion, read-out: hGALK
[7] = recombinant mouse GALK1, Kinase-Glo Plus ATP depletion, bracketed figure in the cell, e.g. (−1.2), is not defined in the text shown, read-out: mGALK
[8] = microsomal stability half-life, minutes
[9] = recombinant human GALK1, Kinase-Glo Plus ATP depletion, bracketed figure in the cell, e.g. (−1.2), is not defined in the text shown, read-out: hGALK
[10] = Tables 2-15, 35 μM ATP, 100 μM galactose, 1 h, bracketed figure after some values is undefined and not reported
[11] = recombinant mouse GALK1, Kinase-Glo Plus ATP depletion

Chain of recombinant mouse GALK1 (Q9R0N0 whole entry): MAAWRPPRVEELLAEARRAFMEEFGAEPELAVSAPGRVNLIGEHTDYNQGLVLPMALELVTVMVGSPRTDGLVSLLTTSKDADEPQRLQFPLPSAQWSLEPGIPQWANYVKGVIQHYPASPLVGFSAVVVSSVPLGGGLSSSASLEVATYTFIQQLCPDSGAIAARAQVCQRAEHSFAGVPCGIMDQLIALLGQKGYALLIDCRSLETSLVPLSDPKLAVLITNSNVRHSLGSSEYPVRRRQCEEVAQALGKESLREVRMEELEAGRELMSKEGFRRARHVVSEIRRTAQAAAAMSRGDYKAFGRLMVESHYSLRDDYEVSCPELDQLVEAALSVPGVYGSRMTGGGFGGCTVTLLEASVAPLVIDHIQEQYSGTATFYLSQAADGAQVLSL

| SMILES | Sol. ([1]; aqueous kinetic solubility) [µg/mL] | IC50 (recombinant mouse GALK1; [3]) [µM] | IC50 (recombinant mouse GALK1; [4]) [µM] | Metab. Stabil. (m) ([2]; microsomal stability half-life) | Perm. (1 × 10^−6 cm/sec) (PAMPA permeability; PAMPA) | IC50 (recombinant human GALK1; [5]) [µM] | IC50 (recombinant human GALK1; [6]) [µM] | also measured |
| --- | --- | --- | --- | --- | --- | --- | --- | --- |
| COC(=O)Cc1cccc(NC(=O)C2=C(C)NC(Nc3nc4ccccc4o3)=NC2c2ccccc2Cl)c1 (centres unmarked) [Compound 176, methyl 2-(3-(2-(benzo[d]oxazol-2-ylamino)-4-(2-chlorophenyl)-6-methyl-1,4-dihydropyrimidine-5-carboxamido)phenyl)acetate] | <1 | 13.7 | 13.7 | 10.34 | <17.4 1 × 10^−6 cm/sec | 10.9 | 10.9 | – |
| CC1=C(C(=O)Nc2nncs2)C(c2cccnc2Br)N=C(Nc2nc3ccccc3o2)N1 (centres unmarked) [Compound 262, 2-(benzo[d]oxazol-2-ylamino)-4-(2-bromopyridin-3-yl)-6-methyl-N-(1,3,4-thiadiazol-2-yl)-1,4-dihydropyrimidine-5-carboxamide] | 11.1 | – | – | – | 185.7 1 × 10^−6 cm/sec | – | – | IC50 (recombinant mouse GALK1; [7]): 19.3 µM; Metab. Stabil. (m) [2, 8]: >30 m; IC50 (recombinant human GALK1; [9]): 13.7 µM |
| CC1=C(C(=O)Nc2nnc(-c3ccncc3)s2)C(c2ccccc2Cl)N=C(Nc2nc3ccccc3o2)N1 (centres unmarked) [Compound 187, 2-(benzo[d]oxazol-2-ylamino)-4-(2-chlorophenyl)-6-methyl-N-(5-(pyridin-4-yl)-1,3,4-thiadiazol-2-yl)-1,4-dihydropyrimidine-5-carboxamide] | <1 | 19.3 | 19.3 | >30 | 6.2 1 × 10^−6 cm/sec | 10.9 | 10.9 | – |
| CC1=C(C(=O)Nc2ccccc2Cl)C(c2ccccc2Cl)N=C(Nc2nc3ccccc3o2)N1 (centres unmarked) [Compound 140, 2-(benzo[d]oxazol-2-ylamino)-N,4-bis(2-chlorophenyl)-6-methyl-1,4-dihydropyrimidine-5-carboxamide] | <1 | – | – | 28.74 | 56.0 1 × 10^−6 cm/sec | 4.32 | – | mGALK IC50 (recombinant mouse GALK1; [10]): inactive; mGALK (μM) (recombinant mouse GALK1; [11]): in- active |
| O/N=C1\CCCC2=C1C(c1ccccc1Cl)N=C(Nc1nc3ccccc3o1)N2 (centres unmarked) [Compound 244, (E)-2-(benzo[d]oxazol-2-ylamino)-4-(2-chlorophenyl)-4,6,7,8-tetrahydroquinazolin-5(1H)-one oxime] | <1 | – | – | – | 244.29 1 × 10^−6 cm/sec | – | – | IC50 (recombinant mouse GALK1; [7]): 10.9 µM; Metab. Stabil. (m) [2, 8]: 5.48 m; IC50 (recombinant human GALK1; [9]): 17.2 µM |
| CC1=C(C(=O)Nc2cccc(Br)c2)C(c2ccccc2Cl)N=C(Nc2nc3ccccc3o2)N1 (centres unmarked) [Compound 147, 2-(benzo[d]oxazol-2-ylamino)-N-(3-bromophenyl)-4-(2-chlorophenyl)-6-methyl-1,4-dihydropyrimidine-5-carboxamide] | <1 | – | – | >30 | <1.8 1 × 10^−6 cm/sec | – | – | mGALK IC50 (recombinant mouse GALK1; [10]): inactive; mGALK (μM) (recombinant mouse GALK1; [11]): in- active; hGALK IC50 (recombinant human GALK1; Tables 2-15, 35 μM ATP, 100 μM galactose, 1 h, bracketed figure after some values (e.g. −1.2) is undefined and not reported): inactive; hGALK (μM) (recombinant human GALK1; recombinant human GALK1, Kinase-Glo Plus ATP depletion): in- active |
| CC1=C(C(=O)Nc2nncs2)C(c2ncccc2Cl)N=C(Nc2nc3ccccc3o2)N1 (centres unmarked) [Compound 256, 2-(benzo[d]oxazol-2-ylamino)-4-(3-chloropyridin-2-yl)-6-methyl-N-(1,3,4-thiadiazol-2-yl)-1,4-dihydropyrimidine-5-carboxamide] | 10.6 | – | – | – | 695.3 1 × 10^−6 cm/sec | – | – | IC50 (recombinant mouse GALK1; [7]): 19.3 µM; Metab. Stabil. (m) [2, 8]: >30 m; IC50 (recombinant human GALK1; [9]): 6.85 µM |
| CC1=C(C(=O)Nc2cc(C(=O)O)ccn2)C(c2cc(C(=O)O)ccc2Cl)N=C(Nc2nc3ccc(F)cc3o2)N1 (centres unmarked) [Compound 73, 2-(4-(5-carboxy-2-chlorophenyl)-2-((6-fluorobenzo[d]oxazol-2-yl)amino)-6-methyl-1,4-dihydropyrimidine-5-carboxamido)isonicotinic acid] | – | 12.2 | 12.2 | – | – | 1.72 | 1.72 | Sol. [1]: >83 µg/mL; Metab. Stabil. (m) ([2]; microsomal half-life): >30 m; Perm. (1 × 10^−6 cm/sec) (PAMPA permeability): 2.85 1 × 10^−6 cm/sec |
| CC1=C(C(=O)Nc2cc(C(=O)O)ccn2)[C@H](c2ccccc2Cl)N=C(Nc2nc3ccc(F)cc3o2)N1 [Compound 19, (R)-2-(4-(2-chlorophenyl)-2-((6-fluorobenzo[d]oxazol-2-yl)amino)-6-methyl-1,4-dihydropyrimidine-5-carboxamido)isonicotinic acid] | – | 1.72 | 1.72 | – | – | 0.24 | 0.24 | Sol. [1]: 55.6 µg/mL; Metab. Stabil. (m) ([2]; microsomal half-life): >30 m; Perm. (1 × 10^−6 cm/sec) (PAMPA permeability): <1 1 × 10^−6 cm/sec |
| CNC(=O)C1CC(=O)C2=C(C1)NC(Nc1nc3ccccc3o1)=NC2c1ccccc1Cl (centres unmarked) [Compound 278, 2-(benzo[d]oxazol-2-ylamino)-4-(2-chlorophenyl)-N-methyl-5-oxo-1,4,5,6,7,8-hexahydroquinazoline-7-carboxamide] | <1 | – | – | – | 430.36 1 × 10^−6 cm/sec | – | – | IC50 (recombinant mouse GALK1; [7]): 6.85 µM; Metab. Stabil. (m) [2, 8]: >30 m; IC50 (recombinant human GALK1; [9]): 6.11 µM |
| COC(=O)c1cnc(NC(=O)C2=C(C)NC(Nc3nc4ccccc4o3)=NC2c2ccccc2Cl)s1 (centres unmarked) [Compound 185, methyl 2-(2-(benzo[d]oxazol-2-ylamino)-4-(2-chlorophenyl)-6-methyl-1,4-dihydropyrimidine-5-carboxamido)thiazole-5-carboxylate] | <1 | 10.9 | 10.9 | 15.91 | – | 4.32 | 4.32 | Papp (PAMPA permeability; PAMPA, Perm. (1 × 10^−6 cm/sec)): < 7.6 ×10⁻⁶ cm/s |
| CC(C)C1=C(C(=O)Nc2nncs2)C(c2ccccc2Cl)N=C(Nc2nc3ccccc3o2)N1 (centres unmarked) [Compound 250, 2-(benzo[d]oxazol-2-ylamino)-4-(2-chlorophenyl)-6-isopropyl-N-(1,3,4-thiadiazol-2-yl)-1,4-dihydropyrimidine-5-carboxamide] | <1 | – | – | – | 24.6 1 × 10^−6 cm/sec | – | – | IC50 (recombinant mouse GALK1; [7]): 15.3 µM; Metab. Stabil. (m) [2, 8]: >30 m; IC50 (recombinant human GALK1; [9]): 7.69 µM |
| CCn1cc(CNC(=O)C2=C(C)NC(Nc3nc4ccc(F)c(N)c4o3)=N[C@@H]2c2ccc(C)cc2Cl)cn1 [Compound 134, (S)-2-((7-amino-6-fluorobenzo[d]oxazol-2-yl)amino)-4-(2-chloro-4-methylphenyl)-N-((1-ethyl-1H-pyrazol-4-yl)methyl)-6-methyl-1,4-dihydropyrimidine-5-carboxamide] | <1 | – | 10.9 | 8.619 | 772.8 1 × 10^−6 cm/sec | – | 1.53 | – |
| CC1=C(C(=O)Nc2cc(-c3nn[nH]n3)ccn2)C(c2ccc(C)cc2Cl)N=C(Nc2nc3ccc(F)cc3o2)N1 (centres unmarked) [Compound 88, N-(4-(2H-tetrazol-5-yl)pyridin-2-yl)-4-(2-chloro-4-methylphenyl)-2-((6-fluorobenzo[d]oxazol-2-yl)amino)-6-methyl-1,4-dihydropyrimidine-5-carboxamide] | – | – | 9.68 | – | – | – | 1.37 | Sol. [1]: <1 µg/mL; Metab. Stabil. (m) ([2]; microsomal half-life): >30 m; Perm. (1 × 10^−6 cm/sec) (PAMPA permeability): <1 1 × 10^−6 cm/sec |
| COC(=O)c1cccc(NC(=O)C2=C(C)NC(Nc3nc4ccccc4o3)=NC2c2ccccc2Cl)n1 (centres unmarked) [Compound 197] | <1 | 12.2 | 12.2 | >30 | 18.9 1 × 10^−6 cm/sec | 9.68 | 9.68 | – |
| CC1=C(C(=O)NCc2cnn(Cc3ccccc3)c2)C(c2ccc(C)cc2Cl)N=C(Nc2nc3ccc(F)cc3o2)N1 (centres unmarked) [Compound 110, N-((1-benzyl-1H-pyrazol-4-yl)methyl)-4-(2-chloro-4-methylphenyl)-2-((6-fluorobenzo[d]oxazol-2-yl)amino)-6-methyl-1,4-dihydropyrimidine-5-carboxamide] | – | 5.44 | 5.44 | – | – | 1.72 | 1.72 | Sol. [1]: <1 µg/mL; Metab. Stabil. (m) ([2]; microsomal half-life): 2.74 m; Perm. (1 × 10^−6 cm/sec) (PAMPA permeability): 159.0 1 × 10^−6 cm/sec |
| CC1=C(C(=O)Nc2cc(CO)ccn2)C(c2ccccc2Cl)N=C(Nc2nc3ccc(F)cc3o2)N1 (centres unmarked) [Compound 37, 4-(2-chlorophenyl)-2-((6-fluorobenzo[d]oxazol-2-yl)amino)-N-(4-(hydroxymethyl)pyridin-2-yl)-6-methyl-1,4-dihydropyrimidine-5-carboxamide] | – | 10.9 | 10.9 | – | – | 3.06 | 3.06 | Sol. [1]: <1 µg/mL; Metab. Stabil. (m) ([2]; microsomal half-life): >30 m; Perm. (1 × 10^−6 cm/sec) (PAMPA permeability): 59.9 1 × 10^−6 cm/sec |
